Experimental data reported in patent US6984719B1, “Peptide antagonists of prostaglandin F2α receptor” (Hospital Sainte-Justine, priority 1998, dated 2006).
Ends that are not written are not given here.

How the values were obtained:
TP receptor = assay: Porcine eyecup model of ex vivo vasomotricity assay, constriction by TxA2 mimetic U46619; design: species or system pig; conditions: peptide 100 μM; 1 μM U46619 / dose response
Procedure: (§1) To prepare eyecups, a circular incision was made 3–4 mm posterior to ora serrata to remove the […] segment and vitreous body with minimal handling of the retina. The remaining eyecup was fixed with pins to a wax base in a 20 ml tissue bath containing 20 ml of Kreb's buffer (pH 7.35–7.45), protease inhibitors, leupetin and aprotinin (10 μg/ml each), and equilibrated with 21% oxygen and 5% carbon dioxide at 37° C. The preparations were allowed to stabilize for 30 min. Peptides at 100 μM were added and incubation was continued for 30 min before the addition of PGF2α.
(§2) Cumulative concentration-responses of PGF2α, and TxA2 mimetic, U46619, (10^−10 to 10^−5 M) curves were constructed separately. To assess the reversibility of the antagonists, the eyecups were thoroughly washed (which would wash away the peptide) with incubation medium and concentration response curves for PGF2α were determined. The outer vessel diameter was recorded with a video camera mounted on a dissecting microscope (Zeiss M 400™) and the responses were quantified by a digital image analyzer (Sigma Scan Software, Jandel Scientific, Corte Madera, Calif.). Vascular diameter was recorded before and 10 min following the topical application of the agent.
The peptide PCP-10 had no effect on the basal tone (diameter of the microvessel) of the vessel (FIG. 2A; left panels). […]

FP receptor [1] = target: T1, FP receptor (Sus scrofa, UniProt C6GAG8); assay: Porcine eyecup model of ex vivo vasomotricity assay, PGF2α-induced constriction of retinal microvessels; design: species or system pig
T1 construct: from tissue; host or cells: eyecup / retinal microvessels of newborn pigs pretreated with ibuprofen
T1 sequence (C6GAG8 1-362): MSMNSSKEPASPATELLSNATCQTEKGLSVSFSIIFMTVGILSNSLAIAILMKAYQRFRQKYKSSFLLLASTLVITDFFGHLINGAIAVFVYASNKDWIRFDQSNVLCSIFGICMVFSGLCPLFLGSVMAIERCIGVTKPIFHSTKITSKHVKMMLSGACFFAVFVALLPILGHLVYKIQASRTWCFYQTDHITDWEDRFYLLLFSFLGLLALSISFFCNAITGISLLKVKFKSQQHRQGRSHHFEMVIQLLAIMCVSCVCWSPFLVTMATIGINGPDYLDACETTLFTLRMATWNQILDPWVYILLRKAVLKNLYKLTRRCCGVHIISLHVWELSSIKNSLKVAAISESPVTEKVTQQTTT
Text: In order to see if the peptides could inhibit FP function using an ex vivo model, we chose porcine eyecup model, an ex vivo assay of vascular constriction in porcine retinas which we previously described and validated (Li et al., 1996 J. Pharmacol. Expt. Therapeut. 278: 370–377; Li et al., 1997 Am. J. Physiol. 273: R1283–90; Abran et al., 1997 Am. J. Physiol. 272: R995–1001). Since FP receptor densities in newborn vasculature are minimal due to down regulation by high levels of circulating prostaglandins in the perinatal period, the newborn pigs were treated with a prostaglandin synthetase blocker, ibuprofen (30 mg/Kg of bodyweight/8 h for 24 h) to increase the density of the receptors as well as their vasomotor effects. By inhibiting circulating prostaglandins, we were able to show potent inhibition of FP receptor-mediated second messenger synthesis as well as FP-mediated vascular constriction in this eyecup model.
as §1, §2
^1Percent vasomotor response in the presence of 100 μM peptide is calculated as percent change in average vascular diameter produced by 10^−7 M PGF2α to the eyecup in the presence of the peptide compared to maximal constriction observed in the absence of the peptide.
^2Percent inhibition produced by each peptide is calculated as (100-percent vasomotor response).
Small letters indicate L-amino acids and capital letters indicate D-amino acids. I=isoleucine; L=leucine; G=glycine; H=histidine; R=Arginine; D=Aspartic acid; Y=Tyrosine; K=Lysine; A=Alanine; W=Tryptophan; E=Glutamic acid; F=Phenyl alanine; Q=Glutamine; N=Aspargine; P=Proline; S=Serine; X=Cyclohexyl alanine. Peptides were dissolved in DMSO freshly just before the experiment as 10 mM stocks and added to the eye cups 30 min before the addition of 10^−7 M PGF2α.
These peptides incorporate L- to D-amino acid changes, deletions, subtle variations in aromaticity, hydrogen bond donor status as opposed to ionic interactions and hydrophobicity.

human FP receptor = target: T2, human FP receptor (Homo sapiens, UniProt P43088); assay: PGF2α-induced phosphoinositide hydrolysis (inositol phosphate synthesis) in HEK293 cells expressing FP receptor; format: cell-based; conditions: 1 μM PGF2α
T2 construct: expressed in transfected cells
T2 sequence (P43088 whole entry): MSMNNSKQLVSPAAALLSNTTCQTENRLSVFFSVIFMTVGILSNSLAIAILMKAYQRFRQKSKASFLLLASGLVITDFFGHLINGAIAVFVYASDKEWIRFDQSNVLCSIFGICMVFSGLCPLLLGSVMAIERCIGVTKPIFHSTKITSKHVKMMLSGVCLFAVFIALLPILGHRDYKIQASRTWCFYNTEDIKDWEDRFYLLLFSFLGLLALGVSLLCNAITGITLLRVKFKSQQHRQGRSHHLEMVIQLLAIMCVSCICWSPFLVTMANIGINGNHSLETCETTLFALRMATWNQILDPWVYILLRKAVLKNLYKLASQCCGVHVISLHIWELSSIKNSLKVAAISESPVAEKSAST
Procedure: Both PCP-8 and -10 were tested in HEK293 cells expressing the human FP receptor. For this purpose, HEK 293 cells stably expressing human FP receptor were plated in 12-well plates in DMEM medium containing 10% fetal bovine serum, penicillin (10 U/ml) and streptomycin (10 μg/ml) and cultured in a humidified atmosphere containing 5% CO2 at 37° C. After the wells were 80% confluent, the cells were labeled with 2 μCi/ml of [^3H]-myo inositol overnight. Next day, the cells were washed once with PBS, and incubated in 0.5 ml of Kreb's buffer containing 10 mM LiCl and indicated concentrations of PCP peptides for 30 min. PGF2α at 1 μM was added to the cells and the incubation was carried out for an additional 30 min. The cells were solubilized with 0.1 N NaOH for 10 min and neutralized with 0.1 N formic acid. The lysates were collected and 1 ml each of methanol and chloroform were sequentially added and vortexed briefly. After centrifugation to separate the phases, inositol phosphates were separated by ion exchange chromatography as described below (Berridge, M. J. et al., 1983, Biochem. J. 212:473–482).
Briefly, the medium was discarded and the IP3 synthesis was stopped by adding 0.6 ml ice-cold methanol. The cells were scraped and collected into polypropylene tubes. Distilled water (0.5 ml) and chloroform (0.6 ml) were added and vigorously vortexed for 2 min. The phases were separated by centrifugation at 6000×g for 10 min. The aqueous phase was applied to AG-1X-8™ (Formate form) anion exchange columns (1 ml bed volume) and free inositol was eluted with 10 ml of water, followed by 60 mM ammonium formate in 0.1 M formic acid. Then, the inositol phosphates were eluted with 5 ml of 1.2 M ammonium formate in 0.1 M formic acid. After adding 3 volumes of scintillation cocktail (Optiphase-HiSafe III), the eluates were counted by scintillation spectrophotometry.
Data are expressed as fold stimulation of inositol phosphate synthesis by 1 μM PGF2α compared to the unstimulated controls. […] The half maximal inhibitory concentrations for both PCP-8 and -10 were slightly less than 100 μM.

FP receptor [2] = assay: Porcine uterine strip ex vivo contraction assay (basal and PGF2α-induced); design: species or system pig; conditions: 100 μM peptide
Procedure: In ex vivo experiments using porcine uterine strips, the peptides were able to prevent both basal and PGF2α-induced contraction.
Uterine tissues from non-pregnant adult pigs were obtained from a local slaughter house and transported to the laboratory on ice. Uterine myometrial strips of approximately 1 cm in length were set up in organ baths containing Kreb's buffer equilibrated with 21% oxygen at 37° C. as we have described (Potvin, W. et al., 1990, Br. J. Pharmacol. 100:341–347; Varma, D. R. and Chemtob, S., 1993, J. Pharmacol. Expt. Ther. 265:1096–1104). Contractions were recorded by force transducers on Grass-polygraph. Strips were incubated with or without 100 μM peptides for 30 min before adding PGF2α in step-wise increments (10^−9 to 10^−6 M). Data were expressed as percentage increase over the basal level of average tension (g).
A graph of spontaneous uterine contractions (known to be dependent upon prostanoids, mainly PGF2α) in the absence and the presence of 100 μM PCP-8 are shown in FIG. 3A.

Substance: ILGHRDYK-OH [PCP-8, ilghrdyk]
- effect on vasoconstriction by TxA2 mimetic U46619 (TP receptor): no effect
- Emax (FP receptor [1]; 100 μM peptide, 10^−7 M PGF2α, calculated as 100-percent vasomotor response, read-out: % inhibition of maximal response): 50%
- effect on vasomotor responses in PGF2α dose response (FP receptor [1]; peptide 100 μM, even at concentrations exceeding 1 μM of PGF2α): abrogated the vasomotor responses
- IC50 (human FP receptor; HEK293 cells stably expressing human FP receptor, read-out: half maximal inhibitory concentration, inositol phosphate synthesis): < 100 µM
- inhibition of inositol phosphate synthesis initiated by PGF2α (human FP receptor; peptide at 100 μM): potently inhibited
- reduction in uterine contraction (FP receptor [2]; all concentrations of PGF2α tested (10^−9 to 10^−6 M)): More than 60%
- effect on spontaneous (basal) uterine contraction (FP receptor [2]; porcine uterine strips): reduced the force of basal contraction
